Laboratory results: patent US20240101570A1 (AMGEN INC., priority 2020, published 2024)

Tests used:
[1] = tested on: HCT116 MTAP null cells; assay: HCT116 MTAP null cell proliferation / viability (CellTiter-Glo, 6 days); assay type: cell-based; settings: HCT116-MTAP null, 144 h, HCT116 MTAP null cells, 6 days, CellTiter-Glo; read-out: HCT-116 MTAP null IC50
Protocol: (§1) HCT116 MTAP null and WT cells were seeded in 96-well tissue culture plates in RPMI 1640 media+10% fetal bovine serum. Plates were incubated overnight at 37° C. and 5% CO2. Cells were then treated with an 8- or 9-point serial dilution of compound, using a top concentration of 1, or 10 μM, 1:3 serial dilution steps and, a DMSO-only control. Cells were incubated in the presence of drug for 6 days. Effects on cell viability were measured with the CellTiter-Glo® Luminescent Cell Viability Assay (Promega) per manufacturer's recommendation. Assay plates were read on an EnVision™ Multilabel Reader using the Ultra-Sensitive luminescence module. IC50 values were calculated with GraphPad Prism v 5.01 using symmetrical sigmoidal dose-response least squares fit with Hill slope fixed to −1 and top constrain to 100% or GeneData Screener using a 4-parameter logistic model to fit dose response curves.
(§2) Alternatively, compounds could be assayed with a 384 well plate format:
(§3) Compounds were pre-spotted into 384 well plates with a 22-point serial dilution of compound, using a top concentration of 10 or 50 μM, 1:2 serial dilution steps and, a DMSO-only control. HCT116 MTAP null and WT cells were then seeded as above and after 6 days effects on cell viability were measured with the CellTiter-Glo® Luminescent Cell Viability Assay (Promega). Assay plates were read as above and IC50 values were calculated with GeneData Screener using a 4-parameter logistic model to fit dose response curves. The reported IC50 represents the value where the curve transits 50% of control.

[2] = tested on: HCT116 WT cells; assay: HCT116 WT cell proliferation / viability (CellTiter-Glo, 6 days); assay type: cell-based; settings: Homo sapiens, HCT-116, 144 h, HCT116 WT cells, 6 days, CellTiter-Glo; read-out: HCT-116 WT IC50
Protocol: as §1, §2, §3

| IC50 [1] | IC50 [2] | SMILES |
| --- | --- | --- |
| 344 nM | 21200 nM | CC1OCc2c1c(N)nc1cnc(C(=O)N(C)Cc3ccc(Br)cn3)cc21 (racemic) [Example 433, (3R)-4-amino-N-((5-bromo-2-pyridinyl)methyl)-N,3-dimethyl-1,3-dihydrofuro[3,4-c][1,7]naphthyridine-8-carboxamide and (3S)-4-amino-N-((5-bromo-2-pyridinyl)methyl)-N,3-dimethyl-1,3-dihydrofuro[3,4-c][1,7]naphthyridine-8-carboxamide] |
| 124 nM | 2100 nM | N#Cc1ccc(CN(C(=O)c2ccc3nc(N)c4c(c3c2)COC4)C2CCCn3ncnc32)nc1 (racemic) [Example 448, 4-amino-N-((5-cyano-2-pyridinyl)methyl)-N-((8R)-5,6,7,8-tetrahydro[1,2,4]triazolo[1,5-a]pyridin-8-yl)-1,3-dihydrofuro[3,4-c]quinoline-8-carboxamide and 4-amino-N-((5-cyano-2-pyridinyl)methyl)-N-((8S)-5,6,7,8-tetrahydro[1,2,4]triazolo[1,5-a]pyridin-8-yl)-1,3-dihydrofuro[3,4-c]quinoline-8-carboxamide] |
| 42 nM | 1230 nM | CC(c1ncccn1)N(Cc1ccc(C2COC2)cc1)C(=O)c1ccc2nc(N)c3c(c2c1)COC3 (racemic) [Example 449, 4-amino-N-(4-(3-oxetanyl)benzyl)-N-((1R)-1-(2-pyrimidinyl)ethyl)-1,3-dihydrofuro[3,4-c]quinoline-8-carboxamide and 4-amino-N-(4-(3-oxetanyl)benzyl)-N-((1S)-1-(2-pyrimidinyl)ethyl)-1,3-dihydrofuro[3,4-c]quinoline-8-carboxamide] |
| 29 nM | 305 nM | CO[C@@H]1COCC[C@H]1N(Cc1ccc(C(F)(F)F)cn1)C(=O)c1ccc2nc(N)c3c(c2c1)COC3 (racemic) [Example 459, 4-amino-N-((3R,4S)-3-methoxytetrahydro-2H-pyran-4-yl)-N-((5-(trifluoromethyl)-2-pyridinyl)methyl)-1,3-dihydrofuro[3,4-c]quinoline-8-carboxamide and 4-amino-N-((3S,4R)-3-methoxytetrahydro-2H-pyran-4-yl)-N-((5-(trifluoromethyl)-2-pyridinyl)methyl)-1,3-dihydrofuro[3,4-c]quinoline-8-carboxamide] |
| 19 nM | 287 nM | CO[C@@H]1CCOC[C@H]1N(Cc1ccc(C(F)(F)F)cn1)C(=O)c1ccc2nc(N)c3c(c2c1)COC3 (racemic) [Example 460, 4-amino-N-((3R,4R)-4-methoxytetrahydro-2H-pyran-3-yl)-N-((5-(trifluoromethyl)-2-pyridinyl)methyl)-1,3-dihydrofuro[3,4-c]quinoline-8-carboxamide and 4-amino-N-((3S,4S)-4-methoxytetrahydro-2H-pyran-3-yl)-N-((5-(trifluoromethyl)-2-pyridinyl)methyl)-1,3-dihydrofuro[3,4-c]quinoline-8-carboxamide] |
| 809 nM | > 10000 nM | CC(CF)N(Cc1ccc(C#N)cn1)C(=O)c1ccc2nc(N)c3c(c2c1)COC3 (racemic) [Example 473, 4-amino-N-((5-cyano-2-pyridinyl)methyl)-N-((2R)-1-fluoro-2-propanyl)-1,3-dihydrofuro[3,4-c]quinoline-8-carboxamide and 4-amino-N-((5-cyano-2-pyridinyl)methyl)-N-((2S)-1-fluoro-2-propanyl)-1,3-dihydrofuro[3,4-c]quinoline-8-carboxamide] |
| 88 nM | 1370 nM | COCC(C)N(Cc1ccc(C(F)(F)F)nn1)C(=O)c1cc2c3c(c(N)nc2cc1Cl)COC3 (racemic) [Example 487, 4-amino-7-chloro-N-((2R)-1-methoxy-2-propanyl)-N-((6-(trifluoromethyl)-3-pyridazinyl)methyl)-1,3-dihydrofuro[3,4-c]quinoline-8-carboxamide and 4-amino-7-chloro-N-((2S)-1-methoxy-2-propanyl)-N-((6-(trifluoromethyl)-3-pyridazinyl)methyl)-1,3-dihydrofuro[3,4-c]quinoline-8-carboxamide] |
| 49 nM | 696 nM | COCC(C)N(Cc1ccc(C(F)(F)F)nn1)C(=O)c1cc2c3c(c(N)nc2cc1F)COC3 (racemic) [Example 488, 4-amino-7-fluoro-N-((2R)-1-methoxy-2-propanyl)-N-((6-(trifluoromethyl)-3-pyridazinyl)methyl)-1,3-dihydrofuro[3,4-c]quinoline-8-carboxamide and 4-amino-7-fluoro-N-((2S)-1-methoxy-2-propanyl)-N-((6-(trifluoromethyl)-3-pyridazinyl)methyl)-1,3-dihydrofuro[3,4-c]quinoline-8-carboxamide] |
| 18 nM | 419 nM | CC(c1ncccn1)N(Cc1ccc(C#N)cn1)C(=O)c1ccc2nc(N)c3c(c2c1)COC3 (racemic) [Example 616, 4-amino-N-((5-cyano-2-pyridinyl)methyl)-N-((1R)-1-(2-pyrimidinyl)ethyl)-1,3-dihydrofuro[3,4-c]quinoline-8-carboxamide and 4-amino-N-((5-cyano-2-pyridinyl)methyl)-N-((1S)-1-(2-pyrimidinyl)ethyl)-1,3-dihydrofuro[3,4-c]quinoline-8-carboxamide] |
| 33 nM | 264 nM | CC(c1ncccn1)N(Cc1ccc(C(F)(F)F)cn1)C(=O)c1ccc2nc(N)c3c(cnn3C)c2c1 (racemic) [Example 618, 4-amino-3-methyl-N-((1R)-1-(2-pyrimidinyl)ethyl)-N-((5-(trifluoromethyl)-2-pyridinyl)methyl)-3H-pyrazolo[3,4-c]quinoline-8-carboxamide and 4-amino-3-methyl-N-((1S)-1-(2-pyrimidinyl)ethyl)-N-((5-(trifluoromethyl)-2-pyridinyl)methyl)-3H-pyrazolo[3,4-c]quinoline-8-carboxamide] |
| 61 nM | 1060 nM | Cc1noc2c1c(N)nc1ccc(C(=O)N(Cc3ccc(C(F)(F)F)cn3)C(C)c3ncccn3)cc12 (racemic) [Example 619, 4-amino-3-methyl-N-((1R)-1-(2-pyrimidinyl)ethyl)-N-((5-(trifluoromethyl)-2-pyridinyl)methyl)[1,2]oxazolo[4,5-c]quinoline-8-carboxamide and 4-amino-3-methyl-N-((1S)-1-(2-pyrimidinyl)ethyl)-N-((5-(trifluoromethyl)-2-pyridinyl)methyl)[1,2]oxazolo[4,5-c]quinoline-8-carboxamide] |
| 34 nM | 953 nM | COCC(C)N(Cc1ccc(C(F)(F)F)cn1)C(=O)c1ccc2nc(N)c3c(C)noc3c2c1 (racemic) [Example 634, 4-amino-N-((2R)-1-methoxy-2-propanyl)-3-methyl-N-((5-(trifluoromethyl)-2-pyridinyl)methyl)[1,2]oxazolo[4,5-c]quinoline-8-carboxamide and 4-amino-N-((2S)-1-methoxy-2-propanyl)-3-methyl-N-((5-(trifluoromethyl)-2-pyridinyl)methyl)[1,2]oxazolo[4,5-c]quinoline-8-carboxamide] |
